Measured values as given in the supplement of paper PMC10307832.

Tests used:
Experiment in all cases: relative viability (nuclei count vs DMSO), 5 days (fraction); higher = more cells survive
[1] = compound: CC1=CC(=CC=C1)NC2=NC(=CS2)C3=CC=NC=C3 + CCNC(=O)c1noc(-c2cc(C(C)C)c(O)cc2O)c1-c1ccc(CN2CCOCC2)cc1 [Luminespib] (partner 0.01 µM)
How it was run: (§1)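 After 5 days of treatment, lung cancer cells in 1536-well plates were fixed and stained in a single step (final 0.05% Triton X-100, 1% formaldehyde, 1 ug/ml Hoechst) and their nuclei counted on 4× images. Treatment had been applied by pin tool the day after seeding as one drug alone or as a fixed anchor-drug dose with five library-drug doses (not always all listed) in √10 steps. Relative viability is the nuclei count of treated wells divided by that of vehicle wells, and values are medians of duplicate plates.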

Masitinib + Palbociclib = compound: Cc1ccc(NC(=O)c2ccc(CN3CCN(C)CC3)cc2)cc1Nc1nc(-c2cccnc2)cs1 [Masitinib] + CC(=O)c1c(C)c2cnc(Nc3ccc(N4CCNCC4)cn3)nc2n(C2CCCC2)c1=O [Palbociclib] (partner 0.5 µM)
How it was run: as §1

Masitinib + OSI-027 = compound: Cc1ccc(NC(=O)c2ccc(CN3CCN(C)CC3)cc2)cc1Nc1nc(-c2cccnc2)cs1 [Masitinib] + COc1cccc2cc(-c3nc([C@H]4CC[C@H](C(=O)O)CC4)n4ncnc(N)c34)[nH]c12 [OSI-027] (partner 0.5 µM)
How it was run: as §1

Masitinib + Vorinostat = compound: Cc1ccc(NC(=O)c2ccc(CN3CCN(C)CC3)cc2)cc1Nc1nc(-c2cccnc2)cs1 [Masitinib] + O=C(CCCCCCC(=O)Nc1ccccc1)NO [Vorinostat] (partner 1 µM)
How it was run: as §1

For UMC-11, the relative viability ([1]; first compound 0.08 µM) was 1.01, the relative viability ([1]; first compound 0.253 µM) was 1.05 and the relative viability ([1]; first compound 0.8 µM) was 1.06. For the same cell line, the relative viability ([1]; first compound 2.53 µM) was 1.07, the relative viability ([1]; first compound 8 µM) was 1.09 and the relative viability (Masitinib + Palbociclib; first compound 0.01 µM) was 0.323. It also gave a relative viability (Masitinib + Palbociclib; first compound 0.03162 µM) of 0.384, a relative viability (Masitinib + Palbociclib; first compound 0.1 µM) of 0.319 and a relative viability (Masitinib + Palbociclib; first compound 0.3162 µM) of 0.351. It also gave a relative viability (Masitinib + Palbociclib; first compound 1 µM) of 0.304, a relative viability (Masitinib + OSI-027; first compound 0.03162 µM) of 0.46 and a relative viability (Masitinib + OSI-027; first compound 0.1 µM) of 0.487. For the same cell line, the relative viability (Masitinib + OSI-027; first compound 0.3162 µM) was 0.491, the relative viability (Masitinib + OSI-027; first compound 1 µM) was 0.46 and the relative viability (Masitinib + Vorinostat; first compound 0.01 µM) was 0.314. For the same cell line, the relative viability (Masitinib + Vorinostat; first compound 0.03162 µM) was 0.342, the relative viability (Masitinib + Vorinostat; first compound 0.1 µM) was 0.375 and the relative viability (Masitinib + Vorinostat; first compound 0.3162 µM) was 0.366. For the same cell line, the relative viability (Masitinib + Vorinostat; first compound 1 µM) was 0.359.
